From patent US20120070392A1, “COMPOSITION FOR INHIBITING ERYTHEMA CAUSED BY ULTRAVIOLET RADIATION CONTAINING A DIPEPTIDE AS ACTIVE INGREDIENT” (priority 2009, published 2012) come the findings set out here.

The first test relates to PGE2 production. As to the kind of experiment: Inhibition of UVB-induced PGE2 production in cultured human keratinocytes (PGE2 assay kit, calibrated with MTT absorbance). The format is cell-based.
Conditions: not given
How it is done:
Human keratinocytes were seeded at a density of 1×10^5 cells/well to 6-well plates containing 2 mL of KGM(keratinocyte growth medium, Clonetics, San Diego, Calif., USA) per well and cultured overnight. Then, the medium was replaced with KBM(keratinocyte basal medium) supplemented with 0.1% BSA(bovine serum albumin) and the cells were cultured for an additional 24 hours. Subsequently, the cells were pre-treated for an additional 24 hours with 2 mL of the same medium containing 10 μg/ml of each of the dipeptides listed in Table 1. […] The pre-treated medium was transferred to new 24 well plates and 1 mL of DPBS(Dulbecco's phosphate buffered saline) was added to the cells in each well. During UV irradiation, the transferred medium was stored in a cell incubator. […] At this time, the control was covered with aluminum foil. After the removal of DPBS, the transferred medium was returned to each well. The cells were further cultured for 24 hours, after which 1 mL of the medium was transferred to microcentrifuge tubes. […] The supernatants were then removed and the formazan crystals were solubilized in 1 ml of DMSO(dimethylsulfoxide). One hundred μL of the solution was transferred to each well of 96-well plates and an optical density was determined at 540 nm using an ELISA(enzyme-linked immunosorbent assay) reader. […] The concentration of PGE2 was determined using a PGE2 Assay Kit(KGE004, R&D Systems, Inc., Minneapolis, Minn., USA) according to the manufacturer's instruction. […] After removal of the reaction, the wells were washed five times with 400 μL of wash buffer. To each well was added 200 μL of a substrate solution, followed by incubation for 20 30 min. The reaction was terminated with 50 μL of a stop solution per well before determining absorbance at 450 nm on an ELISA reader. The PGE2 concentration of each sample was calculated from the standard graph and calibrated with the absorbance obtained in the MTT assay to determine their inhibitory activity against PGE2 production.
As for glutamine-histidine [QH], the “% Inhibition against PGE2 Production” value worked out at 14.8%.
The same measure, in the same setting: then glutamine-tyrosine [QY], with 54.6%.
On the same count and under the same terms, the figure for glycine-glycine [GG] is 26.1%; for histidine-leucine [HL] it is 36.3%; for histidine-lysine [HK] it is 43.8%.
On the same count and under the same terms, the figure for histidine-proline [HP] is 26.3%; for histidine-serine [HS] it is 53.2%; for histidine-tyrosine [HY] it is 77.9%.
For isoleucine-histidine [IH], the “% Inhibition against PGE2 Production” value is recorded as 27.1%.
As to isoleucine-methionine [IM], the “% Inhibition against PGE2 Production” value is recorded as 57.1%.
Same read-out and setting: the figure for isoleucine-proline [IP] is 59.5%; for isoleucine-tyrosine [IY] it is 68.6%.
For leucine-histidine [LH], the “% Inhibition against PGE2 Production” value is recorded as 81.7%.
On the same count and under the same terms, the figure for lysine-methionine [KM] is 84.0%; for lysine-tyrosine [KY] it is 72.6%; for methionine-arginine [MR] it is 36.5%.
For the substance methionine-aspartic acid [MD], the “% Inhibition against PGE2 Production” value is 64.8%.
For the substance methionine-glutamine [MQ], the “% Inhibition against PGE2 Production” value is reported as 87.5%.
As for methionine-threonine [MT], the “% Inhibition against PGE2 Production” value is 71.2%.
The same measure, in the same setting: the figure for methionine-tryptophan [MW] is 76.4%; for methionine-tyrosine [MY] it is 91.7%.
For phenylalanine-tyrosine [FY], the “% Inhibition against PGE2 Production” value came to 88.0%.
Regarding proline-arginine, the “% Inhibition against PGE2 Production” value was 76.4%.
For the substance proline-asparagine [PN], the “% Inhibition against PGE2 Production” value was determined as 32.7%.
On the same count and under the same terms, the figure for proline-aspartic acid [PD] is 84.3%; for proline-glutamine [PQ] it is 78.1%.
The same measure, in the same setting: then proline-histidine [PH], with 74.7%; and proline-isoleucine [PI], with 87.2%; and proline-lysine [PK], with 96.3%.
The same measure, in the same setting: then proline-phenylalanine [PF], with 32.8%; and proline-serine [PS], with 71.3%; and proline-threonine [PT], with 21.7%.
Take proline-tryptophan [PW]: the “% Inhibition against PGE2 Production” value is 85.5%.
proline-tyrosine [PY]: the “% Inhibition against PGE2 Production” value worked out at 24.8%.
Same read-out and setting: the figure for serine-asparagine [SN] is 49.9%; for serine-histidine [SH] it is 51.5%.
On the same count and under the same terms, the figure for serine-methionine [SM] is 75.1%; for serine-proline [SP] it is 94.7%.
Same read-out and setting: the figure for serine-tyrosine [SY] is 91.5%; for serine-valine [SV] it is 31.2%.

The same test, now with this note: 10 μg/ml dipeptide, 24 h pre-treatment, human keratinocytes, UVB 100 mJ/cm^2, medium assayed 24 h after irradiation; 0% or lower expressed as zero; 10% or more regarded as effective.
In the case of glycine-alanine [GA], the “% Inhibition against PGE2 Production” value is 17.6%.
Still for that read-out and setting: then histidine-alanine [HA], with 44.1%; and histidine-histidine [HH], with 79.8%.
Still for that read-out and setting: then histidine-phenylalanine [HF], with 43.2%; and isoleucine-alanine [IA], with 38.6%.
Same read-out and setting: then leucine-alanine, with 47.2%.
Consider phenylalanine-alanine [FA], for which the “% Inhibition against PGE2 Production” value was found to be 48.8%.
On the same count and under the same terms, then phenylalanine-histidine [FH], with 39.2%; and phenylalanine-methionine [FM], with 67.5%; and phenylalanine-phenylalanine [FF], with 70.5%.
Take proline-alanine [PA]: the “% Inhibition against PGE2 Production” value is on record as 76.8%.
The same measure, in the same setting: the figure for serine-alanine [SA] is 51.0%.

The test is the same for the next values; noted with them: 10 μg/ml dipeptide, 24 h pre-treatment, human keratinocytes, UVB 100 mJ/cm^2, medium assayed 24 h after irradiation; […]; 10% or more regarded as effective.
With glutamine-asparagine [QN], the “% Inhibition against PGE2 Production” value turned out to be 13.9%.
The same measure, in the same setting: then glutamine-aspartic acid [QD], with 66.0%; and glutamine-glutamine [QQ], with 92.5%.
Take glutamine-lysine [QK]: the “% Inhibition against PGE2 Production” value came out at 25.9%.
As for glutamine-phenylalanine [QF], the “% Inhibition against PGE2 Production” value came out at 19.0%.
On the same count and under the same terms, the figure for glutamine-serine [QS] is 28.2%; for glutamine-threonine [QT] it is 25.0%.
For glutamine-tryptophan [QW], the “% Inhibition against PGE2 Production” value is reported as 42.8%.
The same measure, in the same setting: the figure for glutamine-valine [QV] is 59.7%; for histidine-tryptophan [HW] it is 21.6%; for isoleucine-aspartic acid it is 64.6%.
Consider isoleucine-glutamine [IQ], for which the “% Inhibition against PGE2 Production” value is recorded as 72.0%.
Same read-out and setting: then isoleucine-lysine [IK], with 71.3%; and isoleucine-serine, with 66.0%.
As to isoleucine-threonine [IT], the “% Inhibition against PGE2 Production” value was determined as 18.9%.
The same measure, in the same setting: the figure for isoleucine-valine [IV] is 70.9%; for leucine-arginine [LR] it is 52.0%.
With leucine-asparagine [LN], the “% Inhibition against PGE2 Production” value is recorded as 78.8%.
Same read-out and setting: the figure for leucine-cysteine [LC] is 33.3%.
For the substance leucine-glutamic acid, the “% Inhibition against PGE2 Production” value is recorded as 92.8%.
For the substance leucine-lysine [LK], the “% Inhibition against PGE2 Production” value worked out at 82.8%.
With leucine-phenylalanine [LF], the “% Inhibition against PGE2 Production” value stood at 90.2%.
Take leucine-threonine [LT]: the “% Inhibition against PGE2 Production” value was found to be 53.4%.
Still for that read-out and setting: the figure for leucine-valine [LV] is 79.9%; for lysine-aspartic acid [KD] it is 90.3%; for lysine-cysteine [KC] it is 20.2%.
The same measure, in the same setting: then lysine-threonine [KT], with 77.8%; and lysine-tryptophan [KW], with 76.9%; and lysine-valine [KV], with 71.6%.
phenylalanine-arginine [FR]: the “% Inhibition against PGE2 Production” value is 92.9%.
On the same count and under the same terms, then phenylalanine-asparagine [FN], with 81.4%; and phenylalanine-aspartic acid [FD], with 13.7%.
Turning to phenylalanine-isoleucine [FI], the “% Inhibition against PGE2 Production” value is 45.8%.
Still for that read-out and setting: then phenylalanine-leucine [FL], with 29.2%; and phenylalanine-lysine [FK], with 73.3%.
phenylalanine-tryptophan [FW]: the “% Inhibition against PGE2 Production” value is 92.9%.
Same read-out and setting: then serine-arginine [SR], with 52.9%.
Regarding serine-aspartic acid [SD], the “% Inhibition against PGE2 Production” value is recorded as 58.4%.
Still for that read-out and setting: then serine-cysteine [SC], with 77.7%; and serine-glutamic acid, with 44.0%; and serine-glutamine [SQ], with 58.8%.
Same read-out and setting: then serine-isoleucine [SI], with 50.3%.
On the same count and under the same terms, the figure for serine-leucine [SL] is 81.6%.
In the case of serine-lysine [SK], the “% Inhibition against PGE2 Production” value turned out to be 44.9%.
Consider serine-serine [SS], for which the “% Inhibition against PGE2 Production” value turned out to be 93.8%.
Still for that read-out and setting: the figure for serine-threonine [ST] is 79.5%.
